We go through four compounds from publication PMC11362529, “Exploring the neuroprotective potential of Nrf2-pathway activators against annonacin toxicity” (Scientific Reports, 2024).

What all share (type): cell-based, human
For experiment [1], the system named is LUHMES cells. Put plainly: Mitochondrial membrane potential (JC-1 probe). Particulars: 24 h. Here is the method:
In PLO/FN-coated 24-well microplates, cells were simultaneously incubated with 20 nM of annonacin and the selected concentrations of Nrf2-pathway activators, in glucose-reduced medium, over the course of 24 h. After that, the medium was removed and cells were washed once with warm HBSS, followed by incubation with 5 µM JC-1 solution in HBSS, for 20 min at 37 °C. For the positive control, the mitochondrial oxidative phosphorylation uncoupler, CCCP, was used at a concentration of 50 µM. After the incubation period, cells were washed with HBSS, and fresh HBSS was added to keep the cells viable during live-image acquisition. Image acquisition was done on a fluorescence microscope Leica-DFC9000GTC (Leica, Frankfurt, Germany). Environmental conditions were kept steady at 37 °C with a 5% CO2 atmosphere during the entire acquisition time. Ten to fifteen images from different fields of view, dispersed across triplicates, were acquired with 200 × magnification (20 × objective, 10 × intermediate magnification), using the same image acquisition parameters for all conditions. The fluorescence of JC-1 monomers was captured on the green channel (λ Ex/Em = 475/519 nm) and the fluorescence of JC-1 aggregates was capture on the red channel (λ Ex/Em = 555/594 nm). Quantification of FI (fluorescence intensities) of JC-1 monomeric and aggregated forms was done using the ImageJ software (http://rsb.info.nih.gov/ij/, ImageJ bundled with 64-bit Java 8). Briefly, TIFF exported images were submitted to background subtraction using the rolling ball method with a radius of 50 pixels. Channel-specific thresholds were applied to all images to define the ROI (region of interest) and FI were measured as integrated density. Data were reported as the ratio between JC-1 aggregates and monomers, obtained by dividing the FI of the JC-1 aggregated form by the FI of the monomeric form.

The test system of experiment [2] is 8-OHdG. Put plainly: Oxidative DNA damage marker 8-OHdG immunofluorescence. Particulars: 48 h; for 8-OHdG reactivity: protective concentration of compound + 20 nM annonacin. On the procedure: For immunostaining, cells were seeded in differentiation medium, on 24-well microplates containing PLO/FN-coated 13 mm Ø coverslips, and treated for 48 h as previously described. On the readout day, the medium was removed and cells were fixed, permeabilized and blocked as before. Primary antibody dilutions were made in 1.5% NHS in PBS (Supplementary Table S1) and incubated overnight at 4 °C. On the following day, the coverslips were washed three times with PBS and incubated with host-specific fluorescence secondary antibodies (Supplementary Table S1), for 2 h at RT, protected from light. After another three washes with PBS, cell nuclei were stained with 1:5,000 DAPI (4’,6-diamidino-2-phenylindole, Thermo Fisher Scientific) in PBS, for 15 min at RT. The coverslips were mounted in mowiol and left to dry for 24 h before imaging. Image acquisition for FI quantification was done with a 200 × magnification (20 × objective, 10 × intermediate magnification), or 400x (40 × objective, 10 × intermediate magnification) in the case of pSC-35 and AT8 immunostaining, on a fluorescence microscope Leica-DFC9000GTC (Leica). In the case of phospho-tau AT8, Z-stacks consisting of 18 plane images with a step size of 1 μm were acquired. The image acquisition parameters were identical for all conditions. Quantification of 8-OHdG (8-hydroxyguanosine) FI and tau species was performed using the ImageJ software. Ten-to-fifteen images per condition across triplicates, from different view fields, were used for this purpose. Briefly, TIFF exported images were submitted to background subtraction using the rolling ball method with a radius of 50 pixels. For 8-OHdG analysis, a channel-specific threshold was applied to all images to define the ROI and FI was measured and normalized to the cell number, determined by the DAPI channel. The average value of the different view fields per experimental condition was taken and reported as fold change compared to the control (DMSO-treated) condition. For the analysis of phospho-tau AT270 and pan-tau reactivity, channel specific thresholds were applied to all images. The DAPI channel was used to define nuclei from viable cells, by selecting particles with a size above 15 µm^2 and a circularity of 0.3–1.0. […] These masks were used to quantify the number of somas expressing each of these tau species, as well as the respective FI. The number of AT270-positive somas was divided by the number of pan-tau-positive somas and expressed as a percentage. […] For quantification of pSC-35 and AT8 speckle number and FI, we used CellProfiler™ 4 (https://cellprofiler.org/, Broad Institute Inc., Cambridge, MA, USA) speckle counting pipeline. […]

The subject of experiment [3] is pSer-202 and pThr-205 tau. Nature of the experiment: AT8 (pSer-202/Thr-205 tau) immunofluorescence. Particulars: 48 h. Here is the method:
For immunostaining, cells were seeded in differentiation medium, on 24-well microplates containing PLO/FN-coated 13 mm Ø coverslips, and treated for 48 h as previously described. On the readout day, the medium was removed and cells were fixed, permeabilized and blocked as before. Primary antibody dilutions were made in 1.5% NHS in PBS (Supplementary Table S1) and incubated overnight at 4 °C. On the following day, the coverslips were washed three times with PBS and incubated with host-specific fluorescence secondary antibodies (Supplementary Table S1), for 2 h at RT, protected from light. After another three washes with PBS, cell nuclei were stained with 1:5,000 DAPI (4’,6-diamidino-2-phenylindole, Thermo Fisher Scientific) in PBS, for 15 min at RT. The coverslips were mounted in mowiol and left to dry for 24 h before imaging. Image acquisition for FI quantification was done with a 200 × magnification (20 × objective, 10 × intermediate magnification), or 400x (40 × objective, 10 × intermediate magnification) in the case of pSC-35 and AT8 immunostaining, on a fluorescence microscope Leica-DFC9000GTC (Leica). In the case of phospho-tau AT8, Z-stacks consisting of 18 plane images with a step size of 1 μm were acquired. The image acquisition parameters were identical for all conditions. Quantification of 8-OHdG (8-hydroxyguanosine) FI and tau species was performed using the ImageJ software. Ten-to-fifteen images per condition across triplicates, from different view fields, were used for this purpose. Briefly, TIFF exported images were submitted to background subtraction using the rolling ball method with a radius of 50 pixels. For 8-OHdG analysis, a channel-specific threshold was applied to all images to define the ROI and FI was measured and normalized to the cell number, determined by the DAPI channel. The average value of the different view fields per experimental condition was taken and reported as fold change compared to the control (DMSO-treated) condition. For the analysis of phospho-tau AT270 and pan-tau reactivity, channel specific thresholds were applied to all images. The DAPI channel was used to define nuclei from viable cells, by selecting particles with a size above 15 µm^2 and a circularity of 0.3–1.0. The obtained mask was submitted to “close” and “fill holes” processes to smooth the objects and fill in small holes, followed by nine “dilations” and one “watershed” to obtain a ROI covering exclusively the soma of viable cells. The obtained mask was combined with threshold images of phospho-tau AT270 and pan-tau in order to define the respective ROI of each tau species. These masks were used to quantify the number of somas expressing each of these tau species, as well as the respective FI. The number of AT270-positive somas was divided by the number of pan-tau-positive somas and expressed as a percentage. The AT270 FI was normalized to the pan-tau FI and the ratio presented as fold change relative to the control (DMSO-treated) condition. For quantification of pSC-35 and AT8 speckle number and FI, we used CellProfiler™ 4 (https://cellprofiler.org/, Broad Institute Inc., Cambridge, MA, USA) speckle counting pipeline. Twenty-to-thirty images per condition across triplicates were used for this purpose. ImageJ BIOP JACoP plugin was used for estimating co-localization of AT8 with DAPI-stained nuclei. Data were reported as fold change compared to the control (DMSO-treated) condition, or as Pearsonʹs coefficient values in case the of AT8 co-localization data.

The mark [4] stands for this setting: protective concentration of compound + 20 nM annonacin.
Where [5] appears, read: 20 nM annonacin alone, vs control.
Where [6] appears, read: protective concentration of compound + 20 nM annonacin, compared to annonacin.

SMILES strings stand for the structures.

For the compound `Cn1c(Nc2nc3ccc(C(F)(F)F)cc3s2)nc2cc(C(=O)NCCOCCO)ccc21` [HPP-D], in experiment [1] (setting [4]), the “mitochondrial membrane potential (JC-1 aggregates/monomers ratio)” value is “rescue the ΔψM from annonacin-induced depolarization”. In addition, in experiment [2], the 8-OHdG reactivity result was “small but significant reduction of 8-OHdG reactivity”.
Turning to `CCCCCCCCCCCC[C@@H](O)[C@H]1CC[C@H]([C@H](O)CCCC[C@H](O)CCCCC[C@@H](O)CC2=CC(C)OC2=O)O1` (some centres unmarked) [annonacin], the “mitochondrial membrane potential (JC-1 aggregates/monomers ratio)” value in experiment [1] (20 nM annonacin alone, glucose-reduced medium) is listed as “significant mitochondrial depolarization”. In experiment [2] (20 nM annonacin alone), the “increase of 8-OHdG reactivity” value is 1.5 fold over control. For the same compound, in experiment [3] (20 nM annonacin alone), the “Pearson´s coefficient between AT8 reactivity and DAPI-stained nuclei (r)” value worked out at 0.58. Besides, in experiment [3] (setting [5]), the AT8 fluorescence intensity entry was “statistically higher AT8 fluorescence intensity” and the “number of AT8 speckles per nucleus” value is given as “non-significant propensity to increase the number of AT8 speckles per nucleus”.
Take `O=C1[C@H](CC[C@H](O)c2ccc(F)cc2)[C@@H](c2ccc(O)cc2)N1c1ccc(F)cc1` [ezetimibe]: in experiment [1] (setting [4]), the “mitochondrial membrane potential (JC-1 aggregates/monomers ratio)” value is listed as “aggravated mitochondrial depolarization”. The 8-OHdG reactivity result in experiment [2] is “levels of oxidative DNA damage comparable to healthy control cells”. Also, in experiment [3] (setting [4]), the “Pearson´s coefficient between AT8 reactivity and DAPI-stained nuclei (r)” value came out at 0.45. In experiment [3] (setting [6]), the AT8 fluorescence intensity entry is recorded as “significant reduction” and the “number of AT8 speckles” value is recorded as “significant reduction of the number of AT8 speckles”.
As to `C=CC(C)(C)c1cc(/C=C/C(=O)c2ccc(O)cc2)c(OC)cc1O` [licochalcone A], the “mitochondrial membrane potential (JC-1 aggregates/monomers ratio)” value in experiment [1] (setting [4]) is reported as “aggravated mitochondrial depolarization”. In addition, in experiment [2], the 8-OHdG reactivity entry is given as “levels of oxidative DNA damage comparable to healthy control cells”. In addition, the “Pearson´s coefficient between AT8 reactivity and DAPI-stained nuclei (r)” value in experiment [3] (setting [4]) was determined as 0.38. Moreover, in experiment [3] (setting [6]), the AT8 fluorescence intensity entry is listed as “significant reduction” and the “number of AT8 speckles” value was “significant reduction of the number of AT8 speckles”.
